Reference: patent US7279317B2, “Modulation of COP9 signalsome isopeptidase activity” (California Institute of Technology, priority 2001, dated 2007)

Legend:
CSN = biological target: T1, CSN (Schizosaccharomyces pombe, UniProt O94454); test: Nedd8 conjugate cleavage (deneddylation of Pcu1/Cul1) by CSN in S. pombe cell extracts, immunoblot; format: biochemical; conditions: 30 min at 30° C.; for inhibition of Nedd8 conjugate cleavage activity of CSN (Nedd8 deconjugation from Cul1): 1 mM chelator
T1 construct: addition (+) of wild type lysate (which contained active CSN); endogenous in cells; host or cells: wild type S. pombe cell lysate
T1 sequence (O94454 whole entry): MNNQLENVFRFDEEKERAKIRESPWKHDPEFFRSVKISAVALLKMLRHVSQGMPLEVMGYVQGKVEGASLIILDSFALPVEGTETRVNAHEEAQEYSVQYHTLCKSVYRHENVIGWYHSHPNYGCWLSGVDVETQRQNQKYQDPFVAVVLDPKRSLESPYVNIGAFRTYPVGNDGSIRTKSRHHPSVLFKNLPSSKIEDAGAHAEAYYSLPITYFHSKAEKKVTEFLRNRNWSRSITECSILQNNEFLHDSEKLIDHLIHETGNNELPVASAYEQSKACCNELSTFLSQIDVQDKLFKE
T1 sequence (O94308 whole entry partner): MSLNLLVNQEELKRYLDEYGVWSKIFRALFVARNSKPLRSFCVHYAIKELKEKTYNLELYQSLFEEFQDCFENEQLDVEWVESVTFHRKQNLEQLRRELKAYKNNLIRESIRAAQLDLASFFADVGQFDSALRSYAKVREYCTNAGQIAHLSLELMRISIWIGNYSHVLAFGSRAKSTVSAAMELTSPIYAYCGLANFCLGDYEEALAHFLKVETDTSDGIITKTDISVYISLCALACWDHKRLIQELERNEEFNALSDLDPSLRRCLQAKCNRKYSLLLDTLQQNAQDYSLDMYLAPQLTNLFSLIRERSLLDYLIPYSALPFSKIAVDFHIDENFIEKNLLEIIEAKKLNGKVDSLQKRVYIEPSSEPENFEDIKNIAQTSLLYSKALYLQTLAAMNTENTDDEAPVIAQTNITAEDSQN
T1 sequence (Q9HFR0 whole entry partner): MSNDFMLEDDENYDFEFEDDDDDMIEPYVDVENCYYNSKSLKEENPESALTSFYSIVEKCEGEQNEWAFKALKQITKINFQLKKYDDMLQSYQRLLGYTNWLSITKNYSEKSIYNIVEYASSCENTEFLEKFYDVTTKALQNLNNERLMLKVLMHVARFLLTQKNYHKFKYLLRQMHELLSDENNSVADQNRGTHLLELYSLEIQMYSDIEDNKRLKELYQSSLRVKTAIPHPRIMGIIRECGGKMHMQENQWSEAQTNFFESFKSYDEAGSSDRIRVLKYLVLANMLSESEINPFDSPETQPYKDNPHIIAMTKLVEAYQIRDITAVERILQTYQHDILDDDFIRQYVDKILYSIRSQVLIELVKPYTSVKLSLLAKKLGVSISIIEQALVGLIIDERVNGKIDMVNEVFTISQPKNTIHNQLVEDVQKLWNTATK
T1 sequence (O13895 whole entry partner): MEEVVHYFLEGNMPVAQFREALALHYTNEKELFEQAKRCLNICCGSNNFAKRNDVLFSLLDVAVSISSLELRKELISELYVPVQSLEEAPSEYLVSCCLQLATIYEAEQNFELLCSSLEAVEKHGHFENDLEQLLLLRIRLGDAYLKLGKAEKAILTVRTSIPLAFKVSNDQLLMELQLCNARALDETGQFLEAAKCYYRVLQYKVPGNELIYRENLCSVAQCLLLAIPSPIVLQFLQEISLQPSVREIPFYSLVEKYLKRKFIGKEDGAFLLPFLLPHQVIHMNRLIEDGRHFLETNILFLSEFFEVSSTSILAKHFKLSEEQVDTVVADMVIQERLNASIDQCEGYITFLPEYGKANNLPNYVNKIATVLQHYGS
T1 sequence (Q8WZK4 whole entry partner): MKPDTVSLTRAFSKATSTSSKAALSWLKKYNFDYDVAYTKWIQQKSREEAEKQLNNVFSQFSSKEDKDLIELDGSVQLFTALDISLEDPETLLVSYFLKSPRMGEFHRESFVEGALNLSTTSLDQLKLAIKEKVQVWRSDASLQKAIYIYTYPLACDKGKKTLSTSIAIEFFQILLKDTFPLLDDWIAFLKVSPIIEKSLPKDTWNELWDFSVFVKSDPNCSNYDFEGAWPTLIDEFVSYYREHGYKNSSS
T1 sequence (Q9UUJ7 whole entry partner): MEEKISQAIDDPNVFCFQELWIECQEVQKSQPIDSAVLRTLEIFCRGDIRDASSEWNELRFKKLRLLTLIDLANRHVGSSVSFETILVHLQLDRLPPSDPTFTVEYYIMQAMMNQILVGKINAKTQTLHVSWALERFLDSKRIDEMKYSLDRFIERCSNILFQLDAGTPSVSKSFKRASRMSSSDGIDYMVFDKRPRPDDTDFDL
Experimental: On the basis of this analysis, it was hypothesized that CSN represents the founding member of a novel class of metalloproteases. To test this hypothesis, the effect of a divalent cation chelator on the Nedd8 conjugate cleavage activity associated with CSN was examined. Mutant csn5Δ S. pombe cell extract that contained neddylated Pcu1 was incubated either alone (−) or following addition (+) of wild type lysate (which contained active CSN) supplemented with either methanol vehicle (MeOH), 1 mM 1,10-phenanthroline (O-PT), or 1 mM, 10 mM, or 20 mM EDTA.
Reactions were incubated 30 min at 30° C. and terminated by addition of SDS-PAGE sample buffer, fractionated by SDS-PAGE, transferred to nitrocellulose, and immunoblotted with antibodies directed against S. pombe Cul1. Filter-bound antibodies were decorated with goat-anti-rabbit antibody conjugated to horse radish peroxidase and visualized with ECL reagents (Lyapina et al., supra, 2001).
The status of Nedd8 conjugation to Cul1 was determined by the mobility of Cul1 on the SDS-polyacrylamide gel. Nedd8-conjugated Cul1 migrated more slowly than unmodified Cul.

26S proteasome [1] = conditions: prior work; cited from earlier work
26S proteasome [2] = biological target: T2, 26S proteasome (Saccharomyces cerevisiae, UniProt P25043+P30656+P38624+P43588); test: Deubiquitination and degradation of multiubiquitinated Sic1 by purified 26S proteasome, immunoblot; format: biochemical; conditions: 2.5 μM; in the presence of epoxomicin
T2 construct: made in house; host or cells: Saccharomyces cerevisiae

Compound | inhibition of Nedd8 conjugate cleavage activity of CSN (Nedd8 deconjugation from Cul1) (CSN) | inhibition of Nedd8 deconjugation from Cul1 by CSN (CSN; 10 mM) | inhibition of Nedd8 deconjugation from Cul1 by CSN (CSN; 20 mM) | sensitivity of 26S proteasome-associated isopeptidase activity (26S proteasome [1]) | sensitivity of Sic1 deubiquitination by 26S proteasome to the inhibitor (26S proteasome [2])
O=C(O)CN(CCN(CC(=O)O)CC(=O)O)CC(=O)O [EDTA] | No inhibition | less than 50% | almost complete inhibition | – | –
c1cnc2c(c1)ccc1cccnc12 [1,10-phenanthroline] | completely inhibited | – | – | sensitive | –
ubiquitin vinyl sulfone | – | – | – | – | not sensitive
